SMILES strings stand for the structures.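 Values below derive from 48-hour exposures of cells grown in 96-well plates, with endpoints linearly interpolated between the two concentrations bracketing the appropriate inhibition level. Abbreviation: GI50, concentration required for 50% inhibition of growth. At the TGI there is no net growth.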 Some results are limits rather than exact numbers.

For the experiment, the system named is MDA-MB-468 breast. Nature of the experiment: NCI anticancer screen, dose series, 48 h.
On to `C=C1C(=O)O[C@H]2[C@H]1CC/C(COC(=O)C(=O)c1cn(C)c3ccc(Cl)cc13)=C\CC[C@@]1(C)O[C@@H]21`, for which the GI50 was 248 nM and the TGI turned out to be 637 nM.

With `O=C1CC(=O)N(C(=O)c2nn(-c3ccc(Cl)cc3)cc2O)N1`, the GI50 is 716 nM and the TGI was > 66500 nM.

On to `COc1cc2ncn(-c3cc(O[C@@H](C)c4ccccc4Cl)c(C(N)=O)s3)c2cc1OC`, for which the GI50 was 120 nM and the TGI came to 1610 nM.

On to `CC(=Nc1ccccc1)C1=C(O)C(Cc2ccc(O)cc2)NC1=O` (configuration not stated), for which the GI50 was 24.4 nM and the TGI stood at 87.4 nM.

As for `Cc1nc2sc(C(=O)Nc3cccc4ccccc34)c(N)c2cc1C(O)c1ccccc1` (configuration not stated), the GI50 was 35.1 nM and the TGI was 15200 nM.

Take `COc1cccc(/C=C/[N+](=O)[O-])c1`: the GI50 is 2300 nM and the TGI is 5210 nM.

Turning to `N#CC1=C(N)Oc2c(ccc3ccccc23)C1c1ccccc1` (configuration not stated), the GI50 is 75.1 nM and the TGI was 1790 nM.

On to `C[C@@H](O)[C@H](NC(=O)N[C@@H](CC(N)=O)c1nc([C@@H](N)CO)no1)C(=O)O`, for which the GI50 is > 100000 nM and the TGI is > 100000 nM.

Regarding `NC1CCC(Nc2nc(NCc3ccc(-c4ccccc4O)nc3)c3ncn(C4CCCC4)c3n2)CC1` (configuration not stated), the GI50 was < 10 nM and the TGI is 12.9 nM.

Take `COc1ccc(NC([Se])=NC23CC4CC(CC(C4)C2)C3)cc1`: the GI50 was 1350 nM and the TGI was 3420 nM.

In the case of `Cc1ccc2c(-c3ccnc(Nc4ccccc4)n3)c(-c3ccc(F)cc3)nn2n1`, the GI50 is 961 nM and the TGI was found to be 6350 nM.

Take `CCN(Cc1ccccc1)c1ccc(CO)c(Cl)c1`: the GI50 was 20.2 nM and the TGI stood at 55.9 nM.

`COc1cc(N2CCC(N3CCN(C)CC3)CC2)ccc1Nc1ncnc(Nc2ccccc2S(=O)(=O)C(C)C)n1`: the GI50 was 4780 nM and the TGI was 20300 nM.

Take `Cc1c2c(cc[n+]1Cc1ccccc1)c1ccc(OCc3ccccc3)cc1n2Cc1ccccc1`: the GI50 was 191 nM and the TGI came out at 915 nM.

`C/C(=N\Nc1cc(C)c2ccccc2n1)c1ccccn1`: the GI50 is 66.2 nM and the TGI stood at 749 nM.

For the compound `C=CCn1c(SCC(=O)Nc2ccc(C(=O)/C=C/c3cc(OC)c(OC)c(OC)c3)cc2)nnc1-c1c[nH]c2ccccc12`, the GI50 is 1770 nM and the TGI was 4210 nM.

For the compound `COc1cc2c(cc1OC)-c1ccc3cc4c(cc3c1N(CCCn1ccnc1)C2)OCO4`, the GI50 was 397 nM and the TGI came out at 2730 nM.

In the case of `CS(=O)(=O)CCNCc1ccc(-c2ccc3ncnc(Nc4ccc(OCc5ccccc5)c(Br)c4)c3c2)o1`, the GI50 was 82 nM and the TGI is 1000 nM.

As to `C=C1C(=O)O[C@H]2[C@H]1CC/C(COC(=O)c1cc3ccccc3o1)=C\CC[C@@]1(C)O[C@@H]21`, the GI50 was 1500 nM and the TGI was 3720 nM.

On to `CCCN(CCC)c1ccc(/C=C/c2ccc3cc(OCC)ccc3n2)cc1`, for which the GI50 is 80100 nM and the TGI is > 100000 nM.

Consider `C=C(C)[C@@H]1CC[C@]2(C(=O)O)CC[C@]3(C)[C@H](CC[C@@H]4[C@@]5(C)CCC(NC(=O)c6cccc(OC(C)=O)c6OC(C)=O)C(C)(C)[C@@H]5CC[C@]43C)[C@@H]12` (some centres not stated), for which the GI50 was 424 nM and the TGI amounted to 2890 nM.

Turning to `C=C(CN1CCN(c2cccc(C(F)(F)F)n2)CC1)c1ccc(C(=O)Nc2ccccc2N)cc1`, the GI50 is 1190 nM and the TGI is 7280 nM.

For the compound `C=C(NC(=O)C(=C)NC(=O)c1csc(C2=NC3c4csc(n4)C4NC(=O)c5csc(n5)C(C(C)(O)C(C)O)NC(=O)C5CSC(=N5)C(=CC)NC(=O)C(C(C)O)NC(=O)c5csc(n5)C3(CC2)NC(=O)C(C)NC(=O)C(=C)NC(=O)C(C)NC(=O)C(C(C)CC)NC2C=Cc3c(C(C)O)cc(nc3C2O)C(=O)OC4C)n1)C(N)=O` (configuration not stated), the GI50 is 1580 nM and the TGI was 3630 nM.

Turning to `CNC(=O)c1ccc(N2C(=S)N(c3ccc(C#N)c(C(F)(F)F)c3)C(=O)C2(C)C)cc1F`, the GI50 is 17100 nM and the TGI is > 75700 nM.

With `O=C1NC(=O)C(c2ccccc2Cl)=C1Nc1cc(Cl)c(O)c(Cl)c1`, the GI50 was 6290 nM and the TGI was > 21400 nM.

With `CC(=O)N1C/C(=C/c2ccc(Cl)cc2)C(=O)/C(=C/c2ccc(Cl)cc2)C1`, the GI50 was 469 nM and the TGI turned out to be 1760 nM.

On to `O=S(=O)(NCCCNc1nccc(-c2c(-c3ccc(F)c(O)c3)nc3sccn23)n1)c1ccc(F)cc1`, for which the GI50 was 2620 nM and the TGI amounted to 7350 nM.

`CCOC(=O)NC1C2CC(=O)OC(O2)C1OC(C)=O` (configuration not stated): the GI50 was > 100000 nM and the TGI is > 100000 nM.

For `CC(C)C[C@H](NC(=O)Cn1ccc(NCc2ccccc2)cc1=O)B(O)O`, the GI50 was 370 nM and the TGI was found to be 1780 nM.

For the compound `O=C(O)c1ccc(Oc2nccc(-c3c(-c4ccc(F)cc4)ncn3C3CCNCC3)n2)cc1`, the GI50 was > 25000 nM and the TGI was > 25000 nM.

As to `COc1cc(-c2ccc(-c3ccc(C(=N)N)nc3)s2)cc(OC)c1OC`, the GI50 was 1740 nM and the TGI was 4410 nM.

For the compound `CCC(=O)Nc1ccccc1C#C/C=C\C#Cc1ccccc1SC`, the GI50 is 3120 nM and the TGI is > 100000 nM.

For `Cc1ccc(Cc2cnc(NC(=O)/C=C/c3cccc(C)c3)s2)cc1`, the GI50 is 309 nM.

For the compound `COc1ccc(-c2cc(-c3ccc(Cl)cc3)nc(SCCCC(=O)NO)n2)cc1`, the GI50 is 1490 nM and the TGI is 4340 nM.

Values taken from PubChem BioAssay (NCI).
